{"source": "patent US4632905A", "about": "“Microbial sulfhydryl oxidase” (Novo Laboratories, Inc., priority 1985, dated 1986)", "format_in_all_cases": "biochemical", "key": {"Aspergillus sojae SOX [1]": {"test_system": "Aspergillus sojae SOX", "test": "Substrate specificity of SOX toward low MW thiol compounds, polarographic (oxygen consumption)", "conditions": "1 mM test compound, 227 μM oxygen, 50 mM potassium phosphate pH 6.7, 30° C., corrected for auto-oxidation", "procedure": "SOX activity may be ascertained by two methods. The activity may be determined by measuring the oxygen consumed when a suitable substrate, e.g., reduced glutathione, is oxidized enzymatically to the corresponding disulfide. The stoichiometry involved is according to the equations 1 and 2 below, namely, 1/2 oxygen consumed per disulfide formed, when the reaction is carried out in the presence of catalase activity.\nThe assay employs oxygen electrode techniques and is used with low MW compounds as substrates.\nThe ability of low MW thiol-containing compounds to serve as substrates for SOX was determined polarographically at 30° C., pH 6.7. […] Protein specificity was determined with proteins in their reductively denatured state. Reductive denaturation is accomplished by submitting the protein to a denaturant e.g., urea and a mercaptan such as beta-mercaptoethanol at pH 8.5. Renaturation is then achieved by incubating the reduced protein with the SOX for a period of time at pH 7.0. The progress of the renaturation can easily be assessed by reaction of the protein with DTNB.\nThe activity of the SOX preparation may be determined polarographically by measuring the oxygen consumed when a substrate e.g., reduced glutathione (GSH) is oxidized to the corresponding disulfide. The activity may also be determined spectrophotometrically using dithiobisnitrobenzoic acid (DTNB) which specifically reacts with a free sulfhydryl by measuring the absorption at 412 nm (ε=13.6×10^3 M^-1 cm^-1). Therefore, one unit of activity is defined as that amount of enzyme which catalyzes the consumption of 1.0 μmole of oxygen per minute or loss of 2.0 μmoles of free sulfhydryls per minute at 30° C., pH 6.7 using 1 mM GSH as substrate.\nThe substrate specificity of SOX toward low MW compounds containing a free SH moiety was ascertained by polarographic methodology. The activities were measured relative to glutathione (GSH) at 30° C. in the following assay system: 1 mM test compound, 227 μM molecular oxygen, 50 mM potassium phosphate pH 6.7, and sufficient SOX to yield a linear decrease in oxygen during the first three minutes. The rates were corrected for auto-oxidation."}, "Aspergillus sojae SOX [2]": {"test_system": "Aspergillus sojae SOX", "test": "Inhibition of Aspergillus sojae SOX"}, "bovine SOX": {"test_system": "bovine SOX", "test": "Inhibition of bovine SOX", "conditions": "1 mM concentration"}}, "note": "Several values for one entry are separate records, joined by “and”; a condition that tells them apart may be missing. Equal entries are not always repeated."}
{"smiles": "O[C@H](CS)[C@H](O)CS", "note": "(racemic) [D,L--dithiothreitol, D,L-dithiothreitol]", "values": [{"measurement": "% of Activity with GSH", "setting": "Aspergillus sojae SOX [1]", "value": 5.6, "unit": "%"}, {"measurement": "% of Activity with GSH", "setting": "Aspergillus sojae SOX [1]; listed as D,L-dithiothreitol", "value": "3-22%"}]}
{"smiles": "N[C@H](CS)C(=O)O", "note": "[D--cysteine, D-cysteine]", "values": [{"measurement": "% of Activity with GSH", "setting": "Aspergillus sojae SOX [1]", "value": 4.1, "unit": "%"}, {"measurement": "% of Activity with GSH", "setting": "Aspergillus sojae SOX [1]; listed as D-cysteine", "value": "3-22%"}]}
{"smiles": "O=C(O)CN(CCN(CC(=O)O)CC(=O)O)CC(=O)O", "note": "[EDTA]", "values": [{"measurement": "Inhibition of Aspergillus sojae SOX", "setting": "Aspergillus sojae SOX [2]; concentration not printed for this enzyme", "value": "not inhibited"}, {"measurement": "Inhibition of bovine SOX", "setting": "bovine SOX", "value": "almost completely"}]}
{"smiles": "N[C@@H](CS)C(=O)O", "note": "[L--cysteine, L-Cysteine]", "values": [{"measurement": "% of Activity with GSH", "setting": "Aspergillus sojae SOX [1]", "value": 8.7, "unit": "%"}, {"measurement": "% of Activity with GSH", "setting": "Aspergillus sojae SOX [1]; listed as L-Cysteine", "value": "3-22%"}]}
{"smiles": "CCOC(=O)[C@@H](N)CS", "note": "[L--cysteine, ethyl ester, L-cysteine ethyl ester]", "values": [{"measurement": "% of Activity with GSH", "setting": "Aspergillus sojae SOX [1]", "value": 21.8, "unit": "%"}, {"measurement": "% of Activity with GSH", "setting": "Aspergillus sojae SOX [1]; listed as L-cysteine ethyl ester", "value": "3-22%"}]}
{"smiles": "CC(=O)N[C@@H](CS)C(=O)O", "note": "[N--acetyl-L--cysteine, N-acetyl-L-cysteine]", "values": [{"measurement": "% of Activity with GSH", "setting": "Aspergillus sojae SOX [1]", "value": 3.0, "unit": "%"}, {"measurement": "% of Activity with GSH", "setting": "Aspergillus sojae SOX [1]; listed as N-acetyl-L-cysteine", "value": "3-22%"}]}
{"smiles": "O=S(=O)([O-])[O-].[Zn+2]", "note": "[ZnSO4]", "values": [{"measurement": "Inhibition of microbial SOX", "setting": "Aspergillus sojae SOX [2]; 1 mM concentration", "value": "partially inhibited"}, {"measurement": "Inhibition of bovine SOX", "setting": "bovine SOX", "value": "non-inhibitory"}]}
{"smiles": "OCCS", "note": "[beta-mercaptoethanol]", "values": [{"measurement": "% of Activity with GSH", "setting": "Aspergillus sojae SOX [1]", "value": "3-22% and 4.2%"}]}
{"smiles": "O[C@H](CS)[C@@H](O)CS", "note": "[dithioerythreitol, D,L-dithioerythreitol]", "values": [{"measurement": "% of Activity with GSH", "setting": "Aspergillus sojae SOX [1]", "value": 6.6, "unit": "%"}, {"measurement": "% of Activity with GSH", "setting": "Aspergillus sojae SOX [1]; listed as D,L-dithioerythreitol", "value": "3-22%"}]}
{"smiles": "N[C@@H](CCC(=O)N[C@@H](CS)C(=O)NCC(=O)O)C(=O)O", "note": "[glutathione, δ-L-glutamyl-L-cysteinyl-glycine]", "values": [{"measurement": "% of Activity with GSH", "setting": "Aspergillus sojae SOX [1]", "value": 100, "unit": "%"}]}
